Data published in paper PMC5368959, “Uricosuric targets of tranilast” (Pharmacology Research & Perspectives, 2017).
Several values for one entry are separate records, joined by “and”; a condition that tells them apart may be missing. Identical values can stand only once. Like-named read-outs stand apart in the source and are kept apart here.

Experiments:
OAT4 = biological target: T1, OAT4 (Homo sapiens, UniProt Q9NSA0); experiment: [14C]-urate uptake by OAT4-expressing Xenopus oocytes; format: cell-based; details: for Inhibition of OAT4-mediated urate uptake: drug 100 μmol/L
T1 sequence (Q9NSA0 1-550): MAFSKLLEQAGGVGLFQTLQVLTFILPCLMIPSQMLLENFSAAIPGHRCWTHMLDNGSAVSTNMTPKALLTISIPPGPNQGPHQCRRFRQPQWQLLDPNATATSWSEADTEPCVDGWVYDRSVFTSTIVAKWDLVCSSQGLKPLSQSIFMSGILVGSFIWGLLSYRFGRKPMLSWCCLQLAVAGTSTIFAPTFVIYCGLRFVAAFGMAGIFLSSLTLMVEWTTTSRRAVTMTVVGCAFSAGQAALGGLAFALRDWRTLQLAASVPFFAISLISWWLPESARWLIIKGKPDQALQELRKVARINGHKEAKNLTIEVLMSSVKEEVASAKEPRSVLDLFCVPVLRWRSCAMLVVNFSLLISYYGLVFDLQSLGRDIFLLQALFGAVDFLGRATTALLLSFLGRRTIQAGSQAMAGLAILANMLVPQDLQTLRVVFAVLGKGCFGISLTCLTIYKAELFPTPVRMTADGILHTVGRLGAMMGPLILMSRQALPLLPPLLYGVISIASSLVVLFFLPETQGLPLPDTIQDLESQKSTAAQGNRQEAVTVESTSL
Experimental: (§1) For uptake experiments, oocytes were washed four times with ND96 medium (pH 7.4) without pyruvate and gentamycin.
(A) The uptake of [^14C]‐urate by OAT4‐expressing oocytes was performed in ND96 medium (pH 7.4) at ~25°C for 1 h. Na^+‐dependence was examined by replacing extracellular NaCl by KCl. […] (B) The inhibition of [^14C]‐urate uptake by OAT4 was examined in the presence of extracellular organic anions (for cis‐inhibition) or uricosuric drugs at the indicated concentrations. […] Data are mean ± S.E. with n = 12–15.

OAT10 = OAT10 (Homo sapiens, UniProt Q9Y226); experiment: [14C]-urate uptake by OAT10-expressing Xenopus oocytes; format: cell-based; details: for Inhibition of OAT10-mediated urate uptake: drug 100 μmol/L, PZA-preloaded oocytes
Sequence of OAT10 (Q9Y226 whole entry): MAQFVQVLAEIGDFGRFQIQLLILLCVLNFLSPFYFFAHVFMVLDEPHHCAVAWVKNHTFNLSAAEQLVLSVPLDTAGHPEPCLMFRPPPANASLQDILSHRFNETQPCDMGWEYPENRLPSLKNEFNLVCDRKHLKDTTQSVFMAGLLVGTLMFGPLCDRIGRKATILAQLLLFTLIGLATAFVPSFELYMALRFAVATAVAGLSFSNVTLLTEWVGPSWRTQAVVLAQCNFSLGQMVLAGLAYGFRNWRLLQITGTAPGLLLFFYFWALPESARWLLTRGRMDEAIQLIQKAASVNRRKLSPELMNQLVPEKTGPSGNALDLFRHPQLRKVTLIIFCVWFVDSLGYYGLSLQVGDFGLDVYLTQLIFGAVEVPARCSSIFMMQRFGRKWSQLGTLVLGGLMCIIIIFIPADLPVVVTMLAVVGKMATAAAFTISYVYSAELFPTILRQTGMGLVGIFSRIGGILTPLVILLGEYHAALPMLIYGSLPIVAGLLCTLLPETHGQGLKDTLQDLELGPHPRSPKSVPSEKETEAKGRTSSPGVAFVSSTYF
Description: as §1
(A) Time course of [^14C]‐urate uptake by control and […] oocytes. […] Inset, western blot analysis of OAT10 protein expressed in oocytes. […] (C) [^14C]‐urate transport properties of OAT10: voltage sensitivity and Na+‐dependence was examined by replacing extracellular NaCl by KCl or LiCl. Existence of urate/Cl^− exchange mechanism or Cl^− dependence or cis‐inhibitory effects of extracellular Cl^− on was verified by [^14C]‐urate uptake via OAT10 in the absence of extracellular Cl^− ion (0 Cl^−). In 0 Cl^− bath, NaCl was replaced by Na‐gluconate (Na‐Gluc), KCl by K‐gluconate (K‐Gluc), MgCl2 by Mg‐gluconate, and CaCl2 by Ca‐gluconate. […] Data are mean ± S.E. with n = 12–15.

ABCG2 = biological target: T2, ABCG2 (Homo sapiens, UniProt Q9UNQ0); experiment: [14C]-urate efflux from ABCG2-expressing Xenopus oocytes
T2 sequence (Q9UNQ0 1-655): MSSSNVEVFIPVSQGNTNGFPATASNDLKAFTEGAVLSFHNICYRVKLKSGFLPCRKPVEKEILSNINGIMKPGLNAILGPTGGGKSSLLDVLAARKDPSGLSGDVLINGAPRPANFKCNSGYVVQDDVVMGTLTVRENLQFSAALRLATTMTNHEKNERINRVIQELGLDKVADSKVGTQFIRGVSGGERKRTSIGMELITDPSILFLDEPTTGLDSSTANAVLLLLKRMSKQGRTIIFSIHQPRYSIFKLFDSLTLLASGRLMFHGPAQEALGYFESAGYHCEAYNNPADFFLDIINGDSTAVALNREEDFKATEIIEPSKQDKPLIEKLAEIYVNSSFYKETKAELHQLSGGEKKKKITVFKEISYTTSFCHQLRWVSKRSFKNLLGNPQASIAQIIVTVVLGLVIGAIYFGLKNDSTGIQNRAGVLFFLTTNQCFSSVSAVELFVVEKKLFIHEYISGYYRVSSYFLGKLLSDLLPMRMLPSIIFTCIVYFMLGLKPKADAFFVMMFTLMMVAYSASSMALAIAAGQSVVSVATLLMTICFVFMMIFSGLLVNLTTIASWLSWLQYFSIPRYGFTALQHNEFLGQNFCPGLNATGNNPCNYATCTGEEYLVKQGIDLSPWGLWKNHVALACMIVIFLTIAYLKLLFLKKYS
Experimental: In brief, a small incision was made in the abdomen and a lobe of ovary was removed. […] Oocytes were then defolliculated by treatment with 3.5 mg/mL collagenase A (Roche, Indianapolis, IN) in Ca^2+‐free ND96 medium for 60–70 min with gentle agitation at room temperature (25°C).
The indicated full‐length cDNAs were subcloned into the pGEMHE oocyte expression plasmid, 3′ of a T7 promoter and flanked by Xenopus laevis‐specific 5′‐ and 3′‐UTRs. Plasmid DNA was linearized at the 3′‐end of cDNAs by Not1, Nhe1, or EcoR1 digestion, and cRNA was in vitro transcribed by using T7 RNA polymerase (mMESSAGE mMACHINE; Ambion, Austin, TX) following the suppliers protocol. Isopropanol‐precipitated, in vitro transcribed capped cRNA was washed with 70% ethanol, dried and then dissolved in sterile nuclease‐free water. The yield and RNA integrity of the capped cRNA samples were assessed by spectroscopy (at 260 nm) and 1% agarose‐formaldehyde gel electrophoresis, respectively. All cRNA samples were stored frozen in aliquots at −80°C until used. About 18 h after isolation, oocytes were injected with 50 nL of sterile water, 50 mmol/L tris pH 7.4, or 50 nL of a cRNA solution in 50 mmol/L tris buffer (pH 7.4) containing 25 ng of the indicated cRNA using fine‐tipped micropipettes by a microinjector (World Precision Instrument Inc. Sarasota, FL).
Preinjected oocytes were then incubated in ND96 medium for 1 h at 16°C for recovery. After incubation, the oocytes were washed in cold ND96 medium four times to remove any external adhering [^14C]‐urate from the oocytes and then subjected to efflux for 1 h at room temperature (~25°C) in ND96 medium (pH 7.4) in the absence or presence of drug.
Radioisotope content of each individual oocyte was measured by scintillation counter after solubilization in 0.3 mL of 10% (v/v) SDS and addition of 2.5 mL of scintillation fluid. […] Statistical analyses including linear regressions were done using SigmaPlot software.
We investigated the effect of tranilast (added in the efflux assay medium) on the [^14C]‐urate efflux activity of ABCG2 expressed in Xenopus laevis oocytes. […]

SMCT2 = biological target: T3, SMCT2 (Homo sapiens, UniProt Q1EHB4); experiment: [14C]-nicotinate uptake by SMCT2-expressing Xenopus oocytes; format: cell-based; details: for IC50: data not shown, read-out: IC50, SMCT2-mediated [14C]-nicotinate uptake
T3 sequence (Q1EHB4 1-618): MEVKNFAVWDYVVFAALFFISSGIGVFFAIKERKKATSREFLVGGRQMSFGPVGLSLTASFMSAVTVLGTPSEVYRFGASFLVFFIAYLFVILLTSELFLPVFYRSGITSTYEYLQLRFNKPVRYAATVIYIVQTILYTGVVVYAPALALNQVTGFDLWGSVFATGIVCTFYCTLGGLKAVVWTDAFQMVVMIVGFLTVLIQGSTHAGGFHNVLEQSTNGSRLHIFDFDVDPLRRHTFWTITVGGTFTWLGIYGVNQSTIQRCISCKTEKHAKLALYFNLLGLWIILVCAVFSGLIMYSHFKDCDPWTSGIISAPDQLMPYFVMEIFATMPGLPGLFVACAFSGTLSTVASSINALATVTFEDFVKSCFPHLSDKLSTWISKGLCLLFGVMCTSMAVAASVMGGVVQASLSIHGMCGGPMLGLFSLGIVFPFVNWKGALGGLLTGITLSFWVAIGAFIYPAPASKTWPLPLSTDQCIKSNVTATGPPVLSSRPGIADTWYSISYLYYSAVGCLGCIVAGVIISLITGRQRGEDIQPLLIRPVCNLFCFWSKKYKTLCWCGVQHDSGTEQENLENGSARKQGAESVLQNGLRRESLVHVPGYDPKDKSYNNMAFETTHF
Experimental: as §1
Chloride ion‐dependence was also assessed; in 0 Cl^− bath, NaCl was replaced by Na‐gluconate (Na‐Gluc), KCl by K‐gluconate (K‐Gluc), MgCl2 by Mg‐gluconate, and CaCl2 by Ca‐gluconate. […] Data are mean ± S.E. with n = 12–15.

[1] = human, Xenopus laevis oocytes expressing ABCG2, pH 7.4, probe [14C]-urate

Row | Compound | Inhibition of OAT4-mediated urate uptake (OAT4) | IC50 (OAT10) | Inhibition of OAT10-mediated urate uptake (OAT10) | inhibition at 1 h, 100 μmol/L (ABCG2; [1]) | IC50 (SMCT2) | inhibition at 1000 µM (OAT4; read-out: Inhibition of OAT4-mediated urate uptake) | inhibition at 1000 µM (OAT10; read-out: Inhibition of OAT10 urate transport activity) | inhibition at 1 h, 1 mmol/L (ABCG2; [1]) | Inhibition of SMCT2 nicotinate uptake (SMCT2; drug 1.0 mmol/L) | IC50 (OAT4; data not shown) | IC50 (OAT10; data not shown, read-out: IC50, [14C]-urate uptake by OAT10) | Effect on ABCG2-mediated urate efflux (ABCG2; drug 100 μmol/L, efflux 1 h)
1 | CCc1oc2ccccc2c1C(=O)c1cc(Br)c(O)c(Br)c1 [benzbromarone] | very efficiently inhibited | ~20 µM | very efficiently inhibited | ~48% | ~61.3 µM | – | – | – | – | – | – | –
2 | CCCN(CCC)S(=O)(=O)c1ccc(C(=O)O)cc1 [probenecid] | – | – | – | – | – | 80% | ~65% | ~20% | remained almost unaffected | – | – | –
3 | COc1ccc(C=CC(=O)Nc2ccccc2C(=O)O)cc1OC [tranilast, N‐(3,4‐dimethoxycinnamoyl) anthranilic acid] | very efficiently inhibited | – | very efficiently inhibited | – | ~1000 µM and > 185 µM | – | – | – | – | ~22 µM | ~31 µM | remained unaffected
